This note sets out measurements from patent US10273228B2, “Hepatitis B viral assembly effectors” (Indiana University Research and Technology Corporation, priority 2015, dated 2019).

The subject of data set [1] is HBV viral load, AD38 cells. In words: Activity of test compounds on viral production from AD38 cells (viral load by quantitative PCR of the core sequence in supernatant). The format is cell-based, Hepatitis B virus. The note with it: Hepatitis B virus, 144 h, 10 μM compound, 6 days at 37° C., vs DMSO control wells; Table 6; read-out: AD38 Viral Load (CpAM/DMSO %) at 10 μM. As for the experimental part:
(§1) AD38 cells were then re-suspended with 10 mL of treatment medium and counted. Wells of a collagen coated 96-well NUNC microtiter plate were seeded at 50,000/well in 180 μL of treatment medium, and 20 μL of either 10% DMSO (Control) or a 10× solution of test compound in 10% DMSO in treatment media was added for a final compound concentration 1, 3, or 10 μM (1.0% final [DMSO]) and plates were incubated for 6 days at 37° C.
Subsequently viral load production was assayed by quantitative PCR of the core sequence. Briefly, 5 μL of clarified supernatant was added to a PCR reaction mixture that contained forward primers HBV-f 5′-CTGTGCCTTGGGTGGCTTT-3′, Reverse primers HBV-r 5′-[…]-3′ and Fluorescent TaqMan™ Probes HBV-probe 5′-FAM/AGCTCCAAA/ZEN/[…]/3IABkFQ-3′ in Quanta Biosciences PerfeCTa® qPCR Toughmix®, and was subsequently on an Applied Biosystems VIIA7 in a final volume of 20 μL. The PCR mixture was incubated at 45° C. for 5 minutes, then 95° C. for 10 min, followed by 40 cycles of 10 seconds at 95° C. and 20 seconds at 60° C. Viral load was quantitated against known standards by using ViiA™ 7 Software. Viral load in the supernatant from wells with treated cells were compared against viral load in supernatant from DMSO control wells (≥3 per plate).

A further data set deals with AD38 cells. In words: AD38 viability normalized to DMSO control. The format is cell-based. As to conditions: 10 μM compound, vs DMSO control; Table 6. As for the experimental part: as §1

For the compound `Cc1ccc(Nc2cc(C)nc(N3CCN(S(=O)(=O)c4cccnc4)CC3)n2)cc1` [Compound 1133], the activity at 10 µM in data set [1] stood at 35%. Moreover, the “AD38 Viability Normalized Result (CPAM/DMSO %) at 10 μM” value with AD38 cells is listed as 108%.
Turning to `Cc1ccc(Nc2cc(C)nc(N3CCN(S(=O)(=O)c4c[nH]cn4)CC3)n2)cc1` [Compound 1134], the activity at 10 µM in data set [1] is 32%. For the same compound, the “AD38 Viability Normalized Result (CPAM/DMSO %) at 10 μM” value in the data set with AD38 cells was determined as 123%.
Consider `Cc1ccc(Nc2cc(C)nc(N3CCN(S(=O)(=O)c4cccc5ccccc45)CC3)n2)cc1` [Compound 1135], for which, in data set [1], the activity at 10 µM is 16%. Besides, the “AD38 Viability Normalized Result (CPAM/DMSO %) at 10 μM” value with AD38 cells is 107%.
On to `Cc1ccc(Nc2cc(C)nc(N3CCN(S(=O)(=O)c4ccc(Oc5ccccc5)cc4)CC3)n2)cc1` [Compound 1136], for which the activity at 10 µM in data set [1] amounted to 24%. Also, in the data set on AD38 cells, the “AD38 Viability Normalized Result (CPAM/DMSO %) at 10 μM” value was 113%.
As for `COc1ccc(S(=O)(=O)N2CCN(c3nc(Nc4ccc(C)cc4)cc(N(C)C)n3)CC2)cc1` [Compound 1143], in data set [1], the activity at 10 µM is 8%. The “AD38 Viability Normalized Result (CPAM/DMSO %) at 10 μM” value with AD38 cells came out at 107%.
The like results for `COc1ccc(S(=O)(=O)N2CCN(c3nc(Nc4ccc(C)cc4)cc(N4CCCC4)n3)CC2)cc1` [Compound 1144] were, in that order, 12% and 100%.
For the compound `Cc1ccc(Nc2cc(C)nc(N3CCN(S(=O)(=O)c4cccs4)CC3)n2)cc1` [Compound 1146], in data set [1], the activity at 10 µM is 15%. Also, in the data set on AD38 cells, the “AD38 Viability Normalized Result (CPAM/DMSO %) at 10 μM” value was 106%.
Take `COc1ccc(S(=O)(=O)N2CCN(c3cc(C)nc(Nc4ccc(C)cc4)n3)CC2)cc1` [Compound 1150]: in data set [1], the activity at 10 µM amounted to 4%. Moreover, the “AD38 Viability Normalized Result (CPAM/DMSO %) at 10 μM” value with AD38 cells is recorded as 89%.
The matching figures for `COc1cccc(S(=O)(=O)N2CCN(c3cc(C)nc(Nc4ccc(C)cc4)n3)CC2)c1` [Compound 1151]: 1% and 73%.
Turning to `COc1ccc(S(=O)(=O)N2CCN(c3nc(C)cc(Oc4ccc(C)cc4)n3)CC2)cc1` [Compound 1152], in data set [1], the activity at 10 µM is 20%. Further, in the data set with AD38 cells, the “AD38 Viability Normalized Result (CPAM/DMSO %) at 10 μM” value was found to be 107%.
As to `Cc1ccc(Nc2cc(C)nc(N3CCN(S(=O)(=O)c4ccccc4C)CC3)n2)cc1` [Compound 1153], in data set [1], the activity at 10 µM turned out to be 21%. Further, in the data set on AD38 cells, the “AD38 Viability Normalized Result (CPAM/DMSO %) at 10 μM” value came to 109%.
As for `COc1ccc(S(=O)(=O)N2CCN(c3nc(Nc4ccc(C)cc4)cc(OC)n3)CC2)cc1` [Compound 1157], the activity at 10 µM in data set [1] was 35%. In addition, in the data set on AD38 cells, the “AD38 Viability Normalized Result (CPAM/DMSO %) at 10 μM” value is 96%.
As to `COc1ccc(S(=O)(=O)N2CCN(c3cccc(Nc4ccc(C)cc4)n3)CC2)cc1` [Compound 1158], the activity at 10 µM in data set [1] stood at 51%. For the same compound, the “AD38 Viability Normalized Result (CPAM/DMSO %) at 10 μM” value in the data set with AD38 cells came to 92%.
The like results for `COc1ccc(S(=O)(=O)N2CCN(c3nc(C)cc(Sc4ccc(C)cc4)n3)CC2)cc1` [Compound 1159] were, in that order, 81% and 95%.
Consider `COc1ccc(S(=O)(=O)N2CCN(c3nc(C)cc(S(=O)(=O)c4ccc(C)cc4)n3)CC2)cc1` [Compound 1160, 2-(4-((4-methoxyphenyl)sulfonyl)piperazin-1-yl)-4-methyl-6-tosylpyrimidine], for which, in data set [1], the activity at 10 µM was determined as 60%. In addition, in the data set on AD38 cells, the “AD38 Viability Normalized Result (CPAM/DMSO %) at 10 μM” value came to 110%.
The matching figures for `Cc1ccc(Nc2cc(C)nc(N3CCN(S(=O)(=O)c4ccc5[nH]c(=O)[nH]c5c4)CC3)n2)cc1` [Compound 1167]: 36% and 108%.
The like results for `COc1cccc(S(=O)(=O)N2CCN(c3cccc(Nc4ccc(C)cc4)n3)CC2)c1` [Compound 1168] were, in that order, 51% and 100%.
Consider `COc1ccc(S(=O)(=O)N2CCN(c3cc(C)cc(Nc4ccc(C)cc4)n3)CC2)cc1` [Compound 1172], for which the activity at 10 µM in data set [1] is 21%. In addition, in the data set on AD38 cells, the “AD38 Viability Normalized Result (CPAM/DMSO %) at 10 μM” value turned out to be 107%.
For the compound `COc1cccc(S(=O)(=O)N2CCN(c3cc(C)cc(Nc4ccc(C)cc4)n3)CC2)c1` [Compound 1173], the activity at 10 µM in data set [1] was 9%. Also, in the data set on AD38 cells, the “AD38 Viability Normalized Result (CPAM/DMSO %) at 10 μM” value stood at 105%.
Consider `COc1ccc(S(=O)(=O)N2CCN(c3nc(Nc4ccc(C)cc4)cc(N4CCOCC4)n3)CC2)cc1` [Compound 1179], for which the activity at 10 µM in data set [1] was found to be 45%. The “AD38 Viability Normalized Result (CPAM/DMSO %) at 10 μM” value with AD38 cells is listed as 103%.
For the compound `COc1ccc(S(=O)(=O)N2CCN(c3nc(C)cc(Nc4cncnc4)n3)CC2)cc1` [Compound 1186], in data set [1], the activity at 10 µM was found to be 76%. Besides, the “AD38 Viability Normalized Result (CPAM/DMSO %) at 10 μM” value in the data set on AD38 cells is 106%.
Consider `COc1ccc(S(=O)(=O)N2CCN(c3nc(C)cc(Nc4ccc5ccccc5c4)n3)CC2)cc1` [Compound 1188], for which, in data set [1], the activity at 10 µM was 52%. Also, in the data set on AD38 cells, the “AD38 Viability Normalized Result (CPAM/DMSO %) at 10 μM” value is 105%.
Regarding `COc1ccc(S(=O)(=O)N2CCN(c3nc(Nc4ccc(C)cc4)cc(N4CCCCC4)n3)CC2)cc1` [Compound 1190], the activity at 10 µM in data set [1] worked out at 72%. Further, in the data set with AD38 cells, the “AD38 Viability Normalized Result (CPAM/DMSO %) at 10 μM” value is recorded as 83%.
With `COc1ccc(S(=O)(=O)N2CCN(c3nc(C)cc(Nc4ccc(C)nc4)n3)CC2)cc1` [Compound 1194], the activity at 10 µM in data set [1] was 64%. The “AD38 Viability Normalized Result (CPAM/DMSO %) at 10 μM” value in the data set with AD38 cells is 109%.
With `COc1ccc(S(=O)(=O)N2CCN(c3nc(C)cc(Nc4ccc(C)cn4)n3)CC2)cc1` [Compound 1200], the activity at 10 µM in data set [1] was 81%. In addition, the “AD38 Viability Normalized Result (CPAM/DMSO %) at 10 μM” value in the data set with AD38 cells was 98%.
For `COc1ccc(S(=O)(=O)N2CCN(c3nc(C)cc(Nc4ccc(-c5ccccc5)cc4)n3)CC2)cc1` [Compound 1201], the activity at 10 µM in data set [1] stood at 90%. In the data set on AD38 cells, the “AD38 Viability Normalized Result (CPAM/DMSO %) at 10 μM” value came out at 101%.
The like results for `COc1ccc(S(=O)(=O)N2CCN(c3nc(Nc4ccc(C)cc4)cc(N4CCNCC4)n3)CC2)cc1` [Compound 1202, 2-(4-((4-methoxyphenyl)sulfonyl)piperazin-1-yl)-6-(piperazin-1-yl)-N-(p-tolyl) pyrimidin-4-amine] were, in that order, 51% and 106%.
Consider `COc1ccc(S(=O)(=O)N2CCN(c3nc(Nc4ccc(C)cc4)cc(N4CCN(C)CC4)n3)CC2)cc1` [Compound 1207], for which the activity at 10 µM in data set [1] was found to be 83%. Moreover, in the data set on AD38 cells, the “AD38 Viability Normalized Result (CPAM/DMSO %) at 10 μM” value is on record as 0%.
For `COc1ccc(S(=O)(=O)N2CCN(c3nc(Nc4ccc(C)cc4)cc(N4CCCC4=O)n3)CC2)cc1` [Compound 1212], in data set [1], the activity at 10 µM is 77%. For the same compound, the “AD38 Viability Normalized Result (CPAM/DMSO %) at 10 μM” value in the data set with AD38 cells was 94%.
Take `COc1ccc(S(=O)(=O)N2CCN(c3nc(Nc4ccc(C)cc4)cc(N4CCCCC4=O)n3)CC2)cc1` [Compound 1213]: the activity at 10 µM in data set [1] was determined as 40%. Also, the “AD38 Viability Normalized Result (CPAM/DMSO %) at 10 μM” value in the data set with AD38 cells was 94%.
The matching figures for `COc1ccc(S(=O)(=O)N2CCN(c3nc(C)cc(Nc4ccccn4)n3)CC2)cc1` [Compound 1215]: 93% and 89%.
Turning to `COc1ccc(S(=O)(=O)N2CCN(c3nc(Nc4ccc(C)cc4)cc(-n4ccnc4)n3)CC2)cc1` [Compound 1229], the activity at 10 µM in data set [1] came out at 13%. Moreover, the “AD38 Viability Normalized Result (CPAM/DMSO %) at 10 μM” value in the data set on AD38 cells is 92%.
As for `Cc1ccc(S(=O)(=O)N2CCN(c3nc(Nc4ccc(F)cc4)cc(-n4cnnc4)n3)CC2)cc1` [Compound 1316], in data set [1], the activity at 10 µM worked out at 25%.
As to `Cc1cc(Nc2ccc(C#N)cc2)nc(N2CCN(S(=O)(=O)c3ccc(F)cc3)CC2)n1` [Compound 1319], in data set [1], the activity at 10 µM came out at 5%.
With `N#Cc1ccc(Nc2cc(C(F)(F)F)nc(N3CCN(S(=O)(=O)c4ccc(C(F)(F)F)cc4)CC3)n2)cc1` [Compound 1320], in data set [1], the activity at 10 µM worked out at 18%.
On to `Cc1ccc(S(=O)(=O)N2CCN(c3nc(C)cc(Nc4ccc(C#N)cc4)n3)CC2)cc1` [Compound 1321], for which, in data set [1], the activity at 10 µM was 1%.
Same read-out and setting: with `Cc1cc(Nc2ccc(C#N)cc2)nc(N2CCN(S(=O)(=O)c3ccc(C(F)(F)F)cc3)CC2)n1` [Compound 1322] the figure was 35%; with `Cc1ccc(S(=O)(=O)N2CCN(c3nc(Nc4ccc(C#N)cc4)cc(C(F)(F)F)n3)CC2)cc1` [Compound 1324], 1%; with `N#Cc1ccc(Nc2cc(C(F)(F)F)nc(N3CCN(S(=O)(=O)c4ccccc4)CC3)n2)cc1` [Compound 1325], 1%.
`N#Cc1ccc(Nc2cc(C(F)(F)F)nc(N3CCN(S(=O)(=O)c4ccc(F)cc4)CC3)n2)cc1` [Compound 1326]: the activity at 10 µM in data set [1] amounted to 2%.
On the same count and under the same terms, next, `Cc1cc(Nc2ccc(C#N)cc2)nc(N2CCN(S(=O)(=O)c3ccccc3)CC2)n1` [Compound 1327]: 1%.
As for `Cc1cc(Nc2ccc(C#N)cc2)nc(N2CCN(S(=O)(=O)c3ccc(O)cc3)CC2)n1` [Compound 1328], the activity at 10 µM in data set [1] was 9%.
As to `COc1ccc(S(=O)(=O)N2CCN(c3nc(Nc4ccc(C#N)cc4)cc(C(F)(F)F)n3)CC2)cc1` [Compound 1329], the activity at 10 µM in data set [1] came out at 1%.
